Earlier results, collected in patent US12691079B2, “Biodissolvable film for localized and efficient treatment of vulvodynia” (The University of North Carolina at Chapel Hill, priority 2019, dated 2026).

System: vulvar vestibule
Conditions: topical application to the vulvar vestibule

**Q.** With `CCN(CC)CC(=O)Nc1c(C)cccc1C` [lidocaine] as the compound, how does the duration of relief read?
**A.** 30 to 60 min
